In brackets after ≈: the same amount, converted by molar mass.
Assays:
[1] = Solubility of active constituents in dendrimer solutions by HPLC (Example 26); assay type: physicochemical
Experimental: Four PEHAM dendrimers, each at 10 g/L and 100 g/L in water, were used for evaluation. A 15 g of each dendrimer was dissolved in distilled water and made accurately to 150 mL volume. Determination of pH was then made using a calibrated pH meter and electrode.
To prepare saturated solutions of active constituent in 100 g/L dendrimer solutions, 10 mL of each 100 g/L dendrimer solution was placed into a 50 mL test tube and 0.2 g of active constituent was then also added. The test tube was then briefly shaken to disperse the contents, before being placed in an ultrasonic water bath, and subjected to sonication for 30 mins at […] The test tube and contents were then cooled to […] and then a 2.0 mL aliquot was taken and filtered through a 0.45 μm PTFE membrane filter.
To prepare saturated solutions of active constituent in 10 g/L dendrimer solutions, 1.0 mL of each 100 g/L dendrimer solution was placed into a 50 mL test tube and a 9.0 mL aliquot of distilled water added and 0.2 g of active constituent was then also added. The test tube was then briefly shaken to disperse the contents, before being placed in an ultrasonic water bath, and subjected to sonication for 30 mins at […] The test tube and contents were then cooled to […] and then a 2.0 mL aliquot was taken and filtered through a 0.45 μm PTFE membrane filter
Each prepared and filtered solution was examined in a light box for Tyndall Scattering (light scattering by particles in a colloid or particles in a fine suspension). A visual observation was made and recorded for each solution. Ten active constituents that were selected to cover a range of water solubility were treated according to the method described here. A total of 200 filtered solutions were prepared.
High Performance Liquid Chromatography was used to analyse each active constituent in each dendrimer solution. Each saturated active constituent solution was freshly prepared for immediate analysis or frozen at <−15° C. where analysis could not take place within 2 hours of preparation. The following are details of the HPLC equipment used. For each active constituent a set of 4 calibration solutions was prepared 0 to 25 ppm. A sequence of injections comparing the peak area of the calibration solutions and the dendrimer solutions was then undertaken. The dendrimer solutions were diluted as required to maintain their respective peak area response within the calibration range. The active constituent concentration (ppm) in the dendrimer solution was determined by calculation: RF×SA×DF, where RF=Response Factor (concentration of calibration solution per unit of peak area, SA=Sample Peak Area (peak area of the sample solution), and DF=Dilution Factor (dilution of the sample solution). HPLC conditions were varied to ensure the optimum detection and separation of each active constituent from excipients.

physchem = assay type: physicochemical; details: water; at pH 7; trifluralin control without dendrimer; read-out: Solubility assessment by GC assay
Experimental: To a 10% w/w solution of agrochemical active dissolved in a suitable volatile organic solvent, (e.g., MeOH, DCM, EtOH, acetone or other appropriate solvent) was added a 10% w/w solution of dendrimer in either water or the same organic solvent as above. The mixture was left to stir for 2-4 h after which time the volatile organic solvent was then removed under reduced pressure to provide a 1:1 mixture of the active and dendrimer. This oily solution was then dissolved in water and filtered. Analysis of active content in the aqueous solution by HPLC or GC assay provided an estimate of the solubility increase due to the addition of the dendrimer.

[2] = tested on: Avena sativa (cv. Echidna); assay: Brownout of oat seedlings after track-sprayer application (Example 21); assay type: in vivo; details: concentrations of 0.1% v/v and above; with GrowChoice 450 g/L glyphosate
Experimental: The experiment tested whether the addition of dendrimers at various concentrations increased penetration into plant tissue and thus improved the rate of kill utilizing the herbicide glyphosate IPA (GrowChoice® 450 g/L present as the isopropylamine salt). Oats were selected for assessment of glyphosate efficacy because there is less genetic variation. All dosing was carried out at sublethal doses in order to witness a dose effect which is enhanced with dendrimer. A standard dose in the positive control would result in death of the oats and would be presumably replicated in the dendrimer treatments.
Avena sativa (cv. Echidna) was sown in 10 cm diameter pots filled with potting mix (AS 3743). Enough seeds were planted to ensure a minimum of seven seedlings per treatment group. Seeds were germinated in a temperature-controlled greenhouse (14° C.-25° C.) for 7 days. […]
The herbicide, glyphosate IPA (GrowChoice® 450 g/L present as the isopropylamine salt), was applied using an enclosed laboratory track-sprayer fitted with three 110° flat fan nozzles (Teejet XR11001-VS) spaced at 50 cm intervals across the boom. […] A total of 5 concentrations of the Example 2 G1-OH dendrimer (0.01, 0.05, 0.1, 0.2 & 0.5% v/v) were evaluated for enhancement of herbicidal effect at each of the rates of glyphosate tested (35, 70, 140 & 280 g ai/ha).
After 10 days the treated plants were assessed for % brownout. […]

| SMILES | Ratio of Active Ingredient in Dendrimer Solution (ppm) to Active Ingredient in Water (ppm) ([1]; 6-BAP, 10 g/L loading) | Ratio of Active Ingredient in Dendrimer Solution (ppm) to Active Ingredient in Water (ppm) ([1]; 6-BAP, 100 g/L loading) | Ratio of Active Ingredient in Dendrimer Solution (ppm) to Active Ingredient in Water (ppm) ([1]; Bifenthrin, 10 g/L loading) | Ratio of Active Ingredient in Dendrimer Solution (ppm) to Active Ingredient in Water (ppm) ([1]; Bifenthrin, 100 g/L loading) | Ratio of Active Ingredient in Dendrimer Solution (ppm) to Active Ingredient in Water (ppm) ([1]; Clomazone, 10 g/L loading) | Ratio of Active Ingredient in Dendrimer Solution (ppm) to Active Ingredient in Water (ppm) ([1]; Clomazone, 100 g/L loading) | Ratio of Active Ingredient in Dendrimer Solution (ppm) to Active Ingredient in Water (ppm) ([1]; Flumetsulam, 10 g/L loading) | Ratio of Active Ingredient in Dendrimer Solution (ppm) to Active Ingredient in Water (ppm) ([1]; Flumetsulam, 100 g/L loading) | Ratio of Active Ingredient in Dendrimer Solution (ppm) to Active Ingredient in Water (ppm) ([1]; Mcylobutanil, 10 g/L loading) | Ratio of Active Ingredient in Dendrimer Solution (ppm) to Active Ingredient in Water (ppm) ([1]; Mcylobutanil, 100 g/L loading) | Ratio of Active Ingredient in Dendrimer Solution (ppm) to Active Ingredient in Water (ppm) ([1]; Penconazole, 10 g/L loading) | Ratio of Active Ingredient in Dendrimer Solution (ppm) to Active Ingredient in Water (ppm) ([1]; Penconazole, 100 g/L loading) | Ratio of Active Ingredient in Dendrimer Solution (ppm) to Active Ingredient in Water (ppm) ([1]; Pendimethalin, 10 g/L loading) | Ratio of Active Ingredient in Dendrimer Solution (ppm) to Active Ingredient in Water (ppm) ([1]; Pendimethalin, 100 g/L loading) | Ratio of Active Ingredient in Dendrimer Solution (ppm) to Active Ingredient in Water (ppm) ([1]; Propaquizafop, 10 g/L loading) | Ratio of Active Ingredient in Dendrimer Solution (ppm) to Active Ingredient in Water (ppm) ([1]; Propaquizafop, 100 g/L loading) | Ratio of Active Ingredient in Dendrimer Solution (ppm) to Active Ingredient in Water (ppm) ([1]; Thiamethoxam, 10 g/L loading) | Ratio of Active Ingredient in Dendrimer Solution (ppm) to Active Ingredient in Water (ppm) ([1]; Thiamethoxam, 100 g/L loading) | Ratio of Active Ingredient in Dendrimer Solution (ppm) to Active Ingredient in Water (ppm) ([1]; Thidiazuron, 10 g/L loading) | Ratio of Active Ingredient in Dendrimer Solution (ppm) to Active Ingredient in Water (ppm) ([1]; Thidiazuron, 100 g/L loading) | other results |
| --- | --- | --- | --- | --- | --- | --- | --- | --- | --- | --- | --- | --- | --- | --- | --- | --- | --- | --- | --- | --- | --- |
| CCC(COCC(O)CN(CCOC)CCOC)(COCC(O)CN(CCOC)CCOC)COCC(O)CN(CCOC)CCOC (stereo not shown) [Example 15, [(C)=TMPTGE; (FF)=Et; (IF1)=OH; (BR1)=DEA; (TF)=OMe; G=1]] | 3 | 475 | 9 | 1 | 1 | 1 | 1 | 2 | 2 | 3 | 2 | 12 | 44 | 41 | 1 | 1 | 2 | 2 | 5 | 17 |  |
| CCC(COCC(O)CN(CC(=O)[O-])CC(=O)[O-])(COCC(O)CN(CC(=O)[O-])CC(=O)[O-])COCC(O)CN(CC(=O)[O-])CC(=O)[O-].[Na+].[Na+].[Na+].[Na+].[Na+].[Na+] (stereo not shown) [Example 10, [(C)=TMPTGE; (FF)=Et; (IF1)=OH; (BR1)=IDA; (TF)=CO2Na; G=1]] | 7 | 448 | 1 | 1 | 1 | 1 | 2 | 2 | 2 | 2 | 2 | 3 | 11 | 2 | 1 | 1 | 2 | 1 | 19 | 40 |  |
| CCC(COCC(O)CN(CCN)CCN)(COCC(O)CN(CCN)CCN)COCC(O)CN(CCN)CCN (stereo not shown) [Example 14, [(C)=TMPTGE; (IF1)=OH; (BR1)=DETA; (TF)=Primary NH2; G=1]] | 10 | 2740 | 1 | 4 | 1 | 1 | 2 | 2 | 3 | 4 | 2 | 6 | 172 | 15 | 1 | 1 | 2 | 1 | 46 | 329 |  |
| CCCN(CCC)c1c([N+](=O)[O-])cc(C(F)(F)F)cc1[N+](=O)[O-] [trifluralin] |  |  |  |  |  |  |  |  |  |  |  |  |  |  |  |  |  |  |  |  | solubility (physchem): 0.22 µg/mL (≈ 0.656 µM) |
| CCC(COCC(O)CN(CCO)CCO)(COCC(O)CN(CCO)CCO)COCC(O)CN(CCO)CCO (stereo not shown) [Example 2, [(C)=TMPTGE; (FF)=Et; (IF1)=OH; (BR1)=DEA; (TF)=OH; G=1]] | 4 | 967 | 1 | 1 | 1 | 1 | 2 | 4 | 2 | 4 | 2 | 43 | 1 | 6 | 1 | 1 | 2 | 2 | 7 | 39 | rate of brownout [2]: did enhance the rate of brownout |
